Source: patent publication US20260078346A1, “Cell Tissue Production Method, Application Method and Application Device” (NTN Corporation, priority 2022, published 2026)

Legend:
[1] = tested on: application tissue (myocardial tissue of iPS cardiomyocytes and normal human cardiac fibroblasts); assay: Ca2+ transient waveform change on addition of isoproterenol, application tissue; assay type: cell-based; details: increasing isoproterenol concentration (nM)
Method: (§1) After a myocardial tissue after being cultured for seven days was dyed, Ca^2+ transient measurement was performed from the viewpoint of checking a function of myocardial contraction. The measurement was performed for a myocardial tissue after culture (hereinafter described as “application tissue”) illustrated in FIG. 29 in this example and a planarly cultured tissue (hereinafter described as “2D tissue”) serving as a comparative example. In the myocardial tissue in the comparative example, iPS cardiomyocytes (iCell Cardiomyocyte 2) and normal human cardiac fibroblast were set to 4:1 in a number ratio. In the myocardial tissue in the comparative example, 50000 cells per one well were seeded and planarly cultured in the same culture medium as the culture medium of the application tissue obtained by the same application device as the application device in the second embodiment. A result of the Ca^2+ transient measurement is illustrated in the following Table 1.
(§2) Subsequently, a change in a Ca^2+ transient waveform at the time when isoproterenol that is a β adrenergic receptor agonist was added was evaluated. In general, the isoproterenol raises the heart rate and the contraction force of a cardiomyocyte. The contraction force of the cardiomyocyte has a correlation with the fluorescence intensity (AMP) of the Ca^2+ transient measurement. […]

[2] = tested on: 2D tissue (planarly cultured iPS cardiomyocytes and normal human cardiac fibroblasts); assay: Ca2+ transient waveform change on addition of isoproterenol, 2D tissue; assay type: cell-based; details: increasing isoproterenol concentration (nM)
Method: as §1, §2

CC(C)NCC(O)c1ccc(O)c(O)c1 (stereo not shown) [isoproterenol]
change in BPM when isoproterenol is added ([1]; FIG. 31): rose according to an increase in the isoproterenol concentration
change in AMP (fluorescence intensity) when isoproterenol is added ([1]; FIG. 32): rose depending on the concentration of the isoproterenol
change in BPM when isoproterenol is added ([2]; FIG. 31): rose according to an increase in the isoproterenol concentration
change in AMP (fluorescence intensity) when isoproterenol is added ([2]; FIG. 32): did not rise much
